# Measured values reported in US20140134648A1, “METHODS OF DETERMINING THE HEALTH STATUS OF AN INDIVIDUAL” (NODALITY, INC., priority 2008, published 2014).
# Entries after “also recorded” stand apart in the source; their conditions may differ.
# Test system: CD34+ myeloblast cells in healthy BMMCs
# Assay: Effects of therapeutics on healthy bone marrow mononuclear cells: CD45 versus CD34 expression by flow cytometry
# Assay type: cell-based
# Conditions: live healthy BMMCs, 1:3 dilutions, 100 μM to 0.0017 μM, after 24 hours
row,Structure (SMILES),loss / viability of the rare population of CD34+ myeloblast cells
1,Nc1ncn([C@@H]2O[C@H](CO)[C@@H](O)[C@H]2O)c(=O)n1 [5-Azacytidine],dose-dependent loss of a rare population of CD34+ myeloblast cells; also recorded: concentration dependent loss of CD34+ myeloblast cells
2,O=C(CCCCCCC(=O)Nc1ccccc1)NO [Vorinostat],selective loss of rare population of CD34+ myeloblast cells in a dose-dependent fashion; also recorded: concentration dependent loss of CD34+ myeloblast cells
